Experimental data reported in patent publication US20250235422A1 (BiomEdit, Inc., priority 2024, published 2025).
Entries after “also recorded” stand apart in the source; their conditions may differ.

test system: not listed separately; assay: Light stability and hydrophobicity observed during development; assay type: physicochemical; conditions: light exposure

Q: Which photostability does the source give for `CC=CC=CC=CC=CC=CC(=O)O` [DDPA, dodeca-2,4,6,8,10-pentaenoic acid] here?
A: photolabile; also recorded: photodecomposition leads to a loss of potency

test system: psoriasis and AD; assay: not given; conditions: humans; cited from earlier work

Q: Which “effectiveness for treatment of psoriasis and AD” value does the source give for `CC(C)c1c(O)cc(/C=C/c2ccccc2)cc1O` [Tapinarof, 3,5-dihydroxy-4-isopropyl-trans-stilbene] here?
A: effective

target: T1, AHR (Homo sapiens, UniProt P35869); assay: not given; conditions: AHR ligand activity; Table 1 reproduced from Barroso A et al., 2021; cited from earlier work
T1 sequence (P35869 11-848): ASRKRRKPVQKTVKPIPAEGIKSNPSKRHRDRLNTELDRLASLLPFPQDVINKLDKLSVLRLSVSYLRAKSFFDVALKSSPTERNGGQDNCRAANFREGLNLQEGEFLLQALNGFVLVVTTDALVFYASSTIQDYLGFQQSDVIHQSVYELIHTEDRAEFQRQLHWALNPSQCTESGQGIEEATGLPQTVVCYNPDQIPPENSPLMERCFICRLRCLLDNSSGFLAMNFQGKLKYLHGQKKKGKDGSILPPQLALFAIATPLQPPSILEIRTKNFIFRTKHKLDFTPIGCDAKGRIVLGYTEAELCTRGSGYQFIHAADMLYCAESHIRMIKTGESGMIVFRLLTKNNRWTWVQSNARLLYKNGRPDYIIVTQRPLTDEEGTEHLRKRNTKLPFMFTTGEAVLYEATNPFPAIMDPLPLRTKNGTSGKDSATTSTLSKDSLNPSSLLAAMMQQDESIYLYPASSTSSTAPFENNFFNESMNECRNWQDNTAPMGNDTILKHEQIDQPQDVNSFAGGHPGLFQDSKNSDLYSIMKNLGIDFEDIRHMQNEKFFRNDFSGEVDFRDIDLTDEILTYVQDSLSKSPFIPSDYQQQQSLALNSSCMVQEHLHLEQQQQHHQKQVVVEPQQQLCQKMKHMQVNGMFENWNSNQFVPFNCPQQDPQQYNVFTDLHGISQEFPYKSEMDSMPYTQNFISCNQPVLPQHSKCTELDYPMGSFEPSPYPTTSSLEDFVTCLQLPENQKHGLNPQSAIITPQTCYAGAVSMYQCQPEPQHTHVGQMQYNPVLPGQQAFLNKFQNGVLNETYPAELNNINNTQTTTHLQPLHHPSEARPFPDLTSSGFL

Q: With `CCCCC/C=C\C[C@@H](O)/C=C/C=C\C/C=C\CCCC(=O)O` as the molecule, how does the Activity read?
A: Agonist

Q: For `O=C(O)c1cc(O)c2ccccc2c1O` [1,4-dihydroxy-2-naphthoic acid (DHNA), 1,4-dihydroxy-2-naphthoic acid], which Activity is on record?
A: Agonist

Q: For `Clc1cc2c(cc1Cl)Oc1cc(Cl)c(Cl)cc1O2` [2,3,7,8-Tetrachlorodibenzop-dioxin], which Activity is on record?
A: Agonist

Q: Which Activity does the source give for `COC(=O)c1csc(C(=O)c2c[nH]c3ccccc23)n1` [2-(19H-indole-39-carbonyl)-thiazole-4-carboxylic acid methyl ester] here?
A: Agonist

Q: With `c1ccc2c(Cc3[nH]c4ccccc4c3Cc3c[nH]c4ccccc34)c[nH]c2c1` [2-(Indol-3-ylmethyl)-3,39-diindolylmethane] as the molecule, how does the Activity read?
A: Agonist

Q: For `c1ccc2c(Cc3c[nH]c4ccccc34)c[nH]c2c1` [3,3-diindolylmethane (DIM), 3,3-diindolylmethane], which Activity is on record?
A: Agonist

Q: For `Cc1ccc2cc3c(ccc4ccccc43)c3c2c1CC3` [3-Methylcholanthrene], which Activity is on record?
A: Agonist

Q: Which Activity does the source give for `Cc1c[nH]c2ccccc12` [3-Methylindole (Skatole), 3-Methylindole] here?
A: Partial

Q: Which Activity does the source give for `COc1ccc(-c2cc(=O)c3ccccc3o2)cc1OC` [3′4′-Dimethoxyflavone] here?
A: Partial

Q: Which Activity does the source give for `COc1cc(-c2cc(=O)c3ccccc3o2)ccc1[N+](=O)[O-]` [3′-methoxy-4′-nitroflavone (MNF), 3′-methoxy-4′-nitroflavone] here?
A: Antagonist

Q: With `N[C@@H](Cc1c[nH]c2ccc(O)cc12)C(=O)O` [5-hydroxytryptophan (5HTP), 5-hydroxytryptophan] as the molecule, how does the Activity read?
A: Agonist

Q: With `O=Cc1c2c(cc3c1=Nc1ccccc1-3)=Nc1ccccc1-2` [6-Formylindolo [3,2-b] carbazole (FICZ), 6-Formylindolo [3,2-b] carbazole] as the molecule, how does the Activity read?
A: Agonist

Q: With `Cc1cc(Cl)cc2c1oc1cc(Cl)cc(Cl)c12` [6-Methyl-1,3,8-trichlorodibenzofuran] as the molecule, how does the Activity read?
A: Partial

Q: With `CC(C)c1cnn2c(N[C@@H]3CCc4[nH]c5ccccc5c4C3)nc(-c3cncc(F)c3)nc12` [AHR antagonist 5 (IK-775)] as the molecule, how does the Activity read?
A: Antagonist

Q: With `O=C(O)[C@H]1O[C@@H](Oc2cc3oc(-c4ccccc4)cc(=O)c3c(O)c2O)[C@H](O)[C@@H](O)[C@@H]1O` [Baicalin] as the molecule, how does the Activity read?
A: AntAgonist

Q: With `O=c1cc(-c2ccccc2)oc2ccc3ccccc3c12` [Beta-naphthoflavone] as the molecule, how does the Activity read?
A: Agonist

Q: With `C=CC1=C(C)/C(=C/C2=NC(=C\c3[nH]c(/C=C4\NC(=O)C(C)=C4C=C)c(C)c3CCC(=O)O)/C(CCC(=O)O)=C2C)NC1=O` [Biliverdin] as the molecule, how does the Activity read?
A: Agonist

Q: For `Cc1ccccc1N=Nc1ccc(NC(=O)c2ccnn2C)c(C)c1` [CH-223191], which Activity is on record?
A: AntAgonist

Q: With `Nc1c(C(=O)O)c2nc3c(C(=O)O)cccc3oc-2cc1=O` [Cinnabarinic acid (CA), Cinnabarinic acid] as the molecule, how does the Activity read?
A: Agonist

Q: For `N#CCc1c[nH]c2ccccc12` [Indole-3-acetonitrile (IAN), Indole-3-acetonitrile], which Activity is on record?
A: Agonist

Q: Which Activity does the source give for `O=Cc1c[nH]c2ccccc12` [Indole-3-aldehyde (I3CA), Indole-3-aldehyde] here?
A: Agonist

Q: For `OCc1c[nH]c2ccccc12` [Indole-3-carbinol (I3C), Indole-3-carbinol], which Activity is on record?
A: Agonist

Q: With `c1ccc2c(c1)N=c1cc3c(cc1-2)=Nc1ccccc1-3` [Indolo [3,2-b]carbazole (ICZ), Indolo [3,2-b]carbazole] as the molecule, how does the Activity read?
A: Agonist

Q: Which Activity does the source give for `O=S(=O)(O)Oc1c[nH]c2ccccc12` [Indoxyl-3-sulfate (I3S), Indoxyl-3-sulfate] here?
A: Agonist

Q: Which Activity does the source give for `Nc1ccccc1C(=O)C[C@H](N)C(=O)O` [L-Kynurenine (Kyn), L-Kynurenine] here?
A: Agonist

Q: For `CCCCC[C@H](O)/C=C/C=C\C=C\C=C\[C@@H](O)[C@@H](O)CCCC(=O)O` [Lipoxin A4], which Activity is on record?
A: Agonist

Q: Which Activity does the source give for `O=Cc1c(Cc2c[nH]c3ccccc23)[nH]c2ccccc12` [Malassezin] here?
A: Agonist

Q: Which Activity does the source give for `COc1cc2c(cc1O)C[C@@H]1NCCc3cc(OC)c(O)c-2c31` [Norisoboldine] here?
A: Agonist

Q: For `O=c1c(O)c(-c2ccc(O)c(O)c2)oc2cc(O)cc(O)c12` [Quercetin], which Activity is on record?
A: Partial

Q: With `CC(C)n1cnc2c(NCCc3ccc(O)cc3)nc(-c3csc4ccccc34)nc21` [StemRegenin 1 (SR1), StemRegenin 1] as the molecule, how does the Activity read?
A: AntAgonist

Q: Which Activity does the source give for `CC1=C(CC(=O)O)c2cc(F)ccc2/C1=C\c1ccc([S+](C)[O-])cc1` (stereo not shown) [Sulindac] here?
A: Agonist

Q: With `CC(C)c1c(O)cc(/C=C/c2ccccc2)cc1O` [Tapinarof, 3,5-dihydroxy-4-isopropyl-trans-stilbene] as the molecule, how does the Activity read?
A: Agonist

Q: With `NCCc1c[nH]c2ccccc12` [Tryptamine] as the molecule, how does the Activity read?
A: Agonist

Q: With `O=C1c2ccccc2-n2c1nc1ccccc1c2=O` [Tryptanthrin] as the molecule, how does the Activity read?
A: Agonist

Q: Which Activity does the source give for `FC(F)(F)c1ccc(Nc2nccc(-c3cccc(Cl)c3)n2)cc1` [VAF347] here?
A: Agonist

Q: With `O=C(O)c1cc(O)c2cccc(O)c2n1` [Xanthurenic acid] as the molecule, how does the Activity read?
A: Agonist

same assay, conditions: cited from earlier work

Q: For `O=C(O)Cc1ccccc1Nc1c(Cl)cccc1Cl` [Diclofenac], which Activity is on record?
A: Agonist

Q: Which Activity does the source give for `c1ccc2[nH]ccc2c1` [Indole] here?
A: Agonist
